Measured values from patent US10588317B2, “Isoxazoline-substituted benzamides and analogues as insecticides” (priority 2015, dated 2020).

Legend:
Assay type in all cases: in vivo
Tetranychus urticae = Tetranychus urticae (two-spotted spider mite): feeding/contact activity; settings: 192 h, application rate 200 ppm, mixed population (mobile stages), 8 days after infestation, read-out: mortality
Method: Bean leaf discs on agar in 24-well microtiter plates were sprayed with aqueous test solutions prepared from 10'000 ppm DMSO stock solutions. After drying the leaf discs were infested with a mite population of mixed ages. The samples were assessed for mortality on mixed population (mobile stages) 8 days after infestation.

Diabrotica balteata = Diabrotica balteata (corn root worm), sprayed maize sprouts; settings: 96 h, application rate 200 ppm, L2 larvae, 4 days after infestation, read-out: effect in at least one of the two categories (mortality or growth inhibition)
Method: Maize sprouts placed onto an agar layer in 24-well microtiter plates were treated with aqueous test solutions prepared from 10'000 ppm DMSO stock solutions by spraying. After drying, the plates were infested with L2 larvae (6 to 10 per well). The samples were assessed for mortality and growth inhibition in comparison to untreated samples 4 days after infestation.
(§1) The following compounds gave an effect of at least 80% in at least one of the two categories (mortality or growth inhibition) at an application rate of 200 ppm: […]

Euschistus heros = Euschistus heros (neotropical brown stink bug), sprayed soybean leaves; settings: 120 h, application rate 200 ppm, N2 nymphs, 5 days after infestation, read-out: effect in at least one of the two categories (mortality or growth inhibition)
Method: Soybean leaves on agar in 24-well microtiter plates were sprayed with aqueous test solutions prepared from 10'000 ppm DMSO stock solutions. After drying the leaves were infested with N2 nymphs. The samples were assessed for mortality and growth inhibition in comparison to untreated samples 5 days after infestation.
as §1

Spodoptera littoralis = Spodoptera littoralis (Egyptian cotton leaf worm), sprayed cotton leaf discs; settings: foliar, 72 h, application rate 200 ppm, L1 larvae, 3 days after infestation, read-out: control (mortality, anti-feeding effect, growth inhibition)
Method: Cotton leaf discs were placed onto agar in 24-well microtiter plates and sprayed with aqueous test solutions prepared from 10'000 ppm DMSO stock solutions. After drying the leaf discs were infested with five L1 larvae. The samples were assessed for mortality, anti-feeding effect, and growth inhibition in comparison to untreated samples 3 days after infestation. Control of Spodoptera littoralis by a test sample is given when at least one of the categories mortality, anti-feedant effect, and growth inhibition is higher than the untreated sample.

Thrips tabaci = Thrips tabaci (onion thrips): feeding/contact activity; settings: 144 h, application rate 200 ppm, Thrips population of mixed ages, 6 days after infestation, read-out: mortality
Method: Sunflower leaf discs were placed on agar in 24-well microtiter plates and sprayed with aqueous test solutions prepared from 10'000 ppm DMSO stock solutions. After drying the leaf discs were infested with a Thrips population of mixed ages. The samples were assessed for mortality 6 days after infestation.

Plutella xylostella = Plutella xylostella (diamond back moth), artificial diet; settings: 120 h, application rate 200 ppm, L2 larvae, 5 days after infestation, read-out: effect in at least one of the two categories (mortality or growth inhibition)
Method: 24-well microtiter plates with artificial diet were treated with aqueous test solutions prepared from 10'000 ppm DMSO stock solutions by pipetting. After drying, the plates were infested with L2 larvae (10 to 15 per well). The samples were assessed for mortality and growth inhibition in comparison to untreated samples 5 days after infestation.
as §1

CN(C)S(=O)(=O)N1C[C@@H](NC(=O)c2ccc(C3=NO[C@@](c4cc(Cl)cc(Cl)c4)(C(F)(F)F)C3)cc2Cl)CO1 [Compound A110, 2-chloro-4-[(5S)-5-(3,5-dichlorophenyl)-5-(trifluoromethyl)-4H-isoxazol-3-yl]-N-[(4R)-2-(dimethylsulfamoyl)isoxazolidin-4-yl]benzamide]
≥ 80%: mortality at 200 ppm (Tetranychus urticae) | percent effect (mortality or growth inhibition) at 200 ppm (Diabrotica balteata) | percent effect (mortality or growth inhibition) at 200 ppm (Euschistus heros) | mortality at 200 ppm (Spodoptera littoralis) | mortality at 200 ppm (Thrips tabaci) | percent effect (mortality or growth inhibition) at 200 ppm (Plutella xylostella)

Cc1cc(C2=NO[C@](c3cc(Cl)c(F)c(Cl)c3)(C(F)(F)F)C2)ccc1C(=O)N[C@H]1CON(S(=O)(=O)CC#N)C1 [Compound A163]
≥ 80%: mortality at 200 ppm (Tetranychus urticae) | percent effect (mortality or growth inhibition) at 200 ppm (Diabrotica balteata) | percent effect (mortality or growth inhibition) at 200 ppm (Euschistus heros) | mortality at 200 ppm (Spodoptera littoralis) | mortality at 200 ppm (Thrips tabaci) | percent effect (mortality or growth inhibition) at 200 ppm (Plutella xylostella)

Cc1cc(C2=NO[C@](c3cc(Cl)cc(Cl)c3)(C(F)(F)F)C2)ccc1C(=O)N[C@H]1CON(S(=O)(=O)CC#N)C1 [Compound A165, N-[(4R)-2-(cyanomethylsulfonyl)-1,2-oxazolidin-4-yl]-4-[(5R)-5-(3,5-dichlorophenyl)-5-(trifluoromethyl)-4H-1,2-oxazol-3-yl]-2-methylbenzamide]
≥ 80%: mortality at 200 ppm (Tetranychus urticae) | percent effect (mortality or growth inhibition) at 200 ppm (Diabrotica balteata) | percent effect (mortality or growth inhibition) at 200 ppm (Euschistus heros) | mortality at 200 ppm (Spodoptera littoralis) | mortality at 200 ppm (Thrips tabaci) | percent effect (mortality or growth inhibition) at 200 ppm (Plutella xylostella)

Cc1cc(C2=NO[C@](c3cc(Cl)cc(Cl)c3)(C(F)(F)F)C2)ccc1C(=O)N[C@H]1CON(S(=O)(=O)NC2(C#N)CC2)C1 [Compound A167]
≥ 80%: mortality at 200 ppm (Tetranychus urticae) | percent effect (mortality or growth inhibition) at 200 ppm (Diabrotica balteata) | percent effect (mortality or growth inhibition) at 200 ppm (Euschistus heros) | mortality at 200 ppm (Spodoptera littoralis) | mortality at 200 ppm (Thrips tabaci) | percent effect (mortality or growth inhibition) at 200 ppm (Plutella xylostella)

COC(=O)CS(=O)(=O)N1C[C@@H](NC(=O)c2ccc(C3=NO[C@](c4cc(Cl)cc(Cl)c4)(C(F)(F)F)C3)cc2C)CO1 [Compound A176, methyl 2-[[(4R)-4-[[4-[(5R)-5-(3,5-dichlorophenyl)-5-(trifluoromethyl)-4H-1,2-oxazol-3-yl]-2-methylbenzoyl]amino]-1,2-oxazolidin-2-yl]sulfonyl]acetate]
≥ 80%: mortality at 200 ppm (Tetranychus urticae) | percent effect (mortality or growth inhibition) at 200 ppm (Diabrotica balteata) | percent effect (mortality or growth inhibition) at 200 ppm (Euschistus heros) | mortality at 200 ppm (Spodoptera littoralis) | mortality at 200 ppm (Thrips tabaci) | percent effect (mortality or growth inhibition) at 200 ppm (Plutella xylostella)

COC(=O)CS(=O)(=O)N1C[C@H](NC(=O)c2ccc(C3=NO[C@@](c4cc(Cl)c(F)c(Cl)c4)(C(F)(F)F)C3)cc2C)CO1 [Compound A190, methyl 2-[[(4S)-4-[[4-[(5S)-5-(3,5-dichloro-4-fluorophenyl)-5-(trifluoromethyl)-4H-1,2-oxazol-3-yl]-2-methylbenzoyl]amino]-1,2-oxazolidin-2-yl]sulfonyl]acetate]
≥ 80%: mortality at 200 ppm (Tetranychus urticae) | percent effect (mortality or growth inhibition) at 200 ppm (Diabrotica balteata) | percent effect (mortality or growth inhibition) at 200 ppm (Euschistus heros) | mortality at 200 ppm (Spodoptera littoralis) | mortality at 200 ppm (Thrips tabaci) | percent effect (mortality or growth inhibition) at 200 ppm (Plutella xylostella)

Cc1cc(C2=NO[C@@](c3cc(Cl)cc(Cl)c3)(C(F)(F)F)C2)ccc1C(=O)N[C@@H]1CON(S(=O)(=O)NCC(F)(F)F)C1 [Compound A194]
≥ 80%: mortality at 200 ppm (Tetranychus urticae) | percent effect (mortality or growth inhibition) at 200 ppm (Diabrotica balteata) | percent effect (mortality or growth inhibition) at 200 ppm (Euschistus heros) | mortality at 200 ppm (Spodoptera littoralis) | mortality at 200 ppm (Thrips tabaci) | percent effect (mortality or growth inhibition) at 200 ppm (Plutella xylostella)
